Results: patent publication US20050037436A1, “Test systems and the use thereof for identifying and characterizing compounds” (priority 2000, published 2005)
“Also recorded” adds a separate entry of the source. Where two headings read alike, the source gives them in different places.

Tests used:
HC110-R [1] = type: cell-based, Haemonchus contortus; conditions: for Ca2+ response to substance alone: 400 ng/ml where stated, up to 50 min or 90 min preincubation
Protocol: The intracellular free Ca^2+ concentration [Ca^2+]i was measured in COS-7 and HEK293 cells transiently transfected with the HC110-R-EGFP or β2-AR-EGFP construct using the calcium imaging method (see also FIG. 11). In each case 2×10^5 COS-7 and HEK293 cells were applied to a 42 mm cover glass coated with 1% gelatine in 55 mm tissue culture dishes with 5 ml of DMEM medium (with 10% FCS and pen/strep). The transfection took place with the aid of the non-liposomal transfection reagent FuGENE 6 (Roche Molecular Biochemicals, Mannheim). […] Constructs of the HC110-R full-length clone with a GFP tag fused in the correct reading frame, and the complete cDNA of the β2-adrenergic receptor which had likewise been provided with a GFP tag at the 3′ end, were transfected.
After the incubation, the cells loaded with Fura-2/AM were examined under an inverted microscope (Zeiss, Axiovert, Germany) and, in parallel with this, in a digital imaging fluorescence microscope (PTI) and differentiated into transfected and untransfected cells at a wavelength of 440 and 490 nm respectively. On average, 5-7 transfected and non transfected cells were selected by fixing an ROI (region of interest). The extinction was measured at 340 nm (calcium-bound Fura-2/AM) and 380 nm (free Fura-2/AM), and the emission was measured at 510 nm. Evaluation took place using the Image Master 1.x software by forming the quotient of 340:510 nm, 380:510 nm and the ratio of 340/380:510 nm (background corrected images) as a function of the agent added.
Agents were always added 6 min after starting the measurement by removing an appropriate volume of Na^+ HBS buffer and pipetting the agent directly into the sample vessel for a further 30 to 50 min. The total volume in the sample vessel was constant at 1.5 ml throughout the experiment. […] Addition of CdCl2 and nifedipine took place immediately at the start of the experiment and before addition of α-LTX, and EGTA was added both at the start of the experiment and 4 min after the addition of α-LTX. Dissolved α-LTX was present in a concentration of 300 nM in 50 mM tris-HCl, pH 8.0; BAY 44-4400 was initially dissolved in pure DMSO (stock solutions between 0.004 and 10 μg/ml). The stock solutions were adjusted to the required concentration in the Na^+ HBS buffer. The maximum amount of the active substance BAY 44-4400 which could be dissolved at a final concentration of 0.1% DMSO was found by setting up serial dilutions in Na^+ HBS.
The data were analyzed using the Excel 98 table calculation programme. The results are derived from at least 2-4 reproduced experiments on in each case 4-8 transfected and un-transfected cells.

nematodes = experiment: Anthelmintic / neuropharmacological activity on nematodes
HC110-R [2] = experiment: Ca2+ imaging of HEK-293 cells expressing HC110-R-Myc/His; type: cell-based, Haemonchus contortus; conditions: stably expressing cells; 400 ng/ml added 6 min before 75 nM α-LTX
HC110-R [3] = type: binding, Haemonchus contortus
Description: Since denaturation of proteins is necessary for carrying out SDS-PAGE, there may be destruction of conformation-dependent epitopes. Antibodies or proteins which specifically recognize such epitopes may therefore no longer bind. […] BAY44-4400 differs from PF1022A by 2 morpholine residues which are covalently bonded to the phenyl rings of the two D-phenyllactyl radicals of PF1022A. […] For this purpose, total protein from untransfected HEK-293 cells and HEK-293 cells which transiently express HC110-R-Myc/His, and from the 54 kDa N terminus and the 21 kDa C terminus of HC110-R which were expressed in E. coli, were fractionated by SDS-PAGE, renatured and blotted in the usual way. […] In addition, a partially renatured SDS polyacrylamide gel with the protein fractions of untransfected HEK-293 cells, HEK-293 cells transiently transfected with HC110-R-Myc/His, and the N terminus of HC110-R expressed in E. coli and total protein from H. contortus was blotted, incubated with PF1022A-biotin and detected using streptavidin HRP.

[4] = 4 ng/ml added 6 min before 75 nM α-LTX

For CC(C)C[C@H]1C(=O)O[C@H](Cc2ccc(N3CCOCC3)cc2)C(=O)N(C)[C@@H](CC(C)C)C(=O)O[C@H](C)C(=O)N(C)[C@@H](CC(C)C)C(=O)O[C@H](Cc2ccc(N3CCOCC3)cc2)C(=O)N(C)[C@@H](CC(C)C)C(=O)O[C@H](C)C(=O)N1C [BAY44-4400, cyclo(-D-Lac-L-MeLeu-D-p-morpholinyl-PhLac-L-MeLeu-)], the “first small α-LTX-induced increase in [Ca2+]i” value (HC110-R [1]; [4]) was “disappeared”, the “α-LTX-induced increase in [Ca2+]i in presence of substance” value (shortened to “α-LTX-induced increase … of substance”) (HC110-R [1]; [4]) was 44 ± 6.0 nM and the “change in [Ca2+]i after preincubation with substance alone” value (HC110-R [1]; 4 ng/ml or 400 ng/ml, 90 min preincubation, no α-LTX) was “no change in [Ca^2+]i”. The “α-LTX-induced increase in [Ca2+]i after preincubation” value (HC110-R [1]; 4 ng/ml, 90 min preincubation, substance removed, then 75 nM α-LTX) was 95 ± 20.5 nM, the “plateau of [Ca2+]i after the peak” value (HC110-R [1]; 4 ng/ml, 90 min preincubation, then 75 nM α-LTX) was 23 ± 2.6 nM and the “change in [Ca2+]i, BAY44-4400 given with piperazine” value (HC110-R [1]; 400 ng/ml BAY44-4400 + 1 or 10 μM piperazine, untransfected and HC110-R-GFP-transfected cells) was “no change in [Ca^2+]i was detectable”. The “α-LTX-induced increase … of substance” value (HC110-R [1]; 400 ng/ml added 6 min before 75 nM α-LTX) was 49 ± 4.2 nM, the “plateau of [Ca2+]i above initial values after the peak” value (HC110-R [1]; 400 ng/ml added 6 min before 75 nM α-LTX, 8 min after peak) was 11 ± 1.4 nM and the “delay of the α-LTX-induced increase” value (HC110-R [1]; 400 ng/ml versus 4 ng/ml, 90 min preincubation) was 12 min. The “Ca2+ response to substance alone” value (HC110-R [1]; no α-LTX) was “does not influence the Ca^2+ concentration; also recorded: neither the very effective nematicide BAY44-4400 nor the virtually ineffective antipode PF1022-001 induces a Ca^2+ response”, the “Ca2+ response to substance alone” value (HC110-R [1]; no α-LTX, listed as BAY 44-4400) was “in no comparable way with a change in the intracellular Ca^2+ concentration” and the “Ca2+-mediated response to substance alone” value (HC110-R [1]; 100, 300 or 400 ng/ml and 1 or 10 μg/ml, 50 min, untransfected and HC110-R-GFP-transfected cells) was “At no concentration was a Ca^2+-mediated response detectable”. The “mode of action on α-LTX signalling” value (HC110-R [1]; HC110-R-transfected HEK-293 cells) was “acts as antagonist of α-LTX”, the “first small α-LTX-induced increase in [Ca2+]i” value (HC110-R [1]; incubation 6 minutes before 75 nM α-LTX) was “disappears” and the “reduction of second α-LTX-induced increase” value (HC110-R [1]; incubation 6 minutes before 75 nM α-LTX, 15 minutes after α-LTX) was 85%. The “first α-LTX-induced increase in Ca2+” value (HC110-R [1]; preincubated 60 minutes before 30 minutes FURA loading, 75 nM α-LTX) was “complete disappearance”, the “second α-LTX-induced increase in [Ca2+]i” value (HC110-R [1]; preincubated 60 minutes before 30 minutes FURA loading, 30 minutes after 75 nM α-LTX) was 70 nM and the “anthelmintic / nematicidal activity in words” value (nematodes) was “very effective nematicide”. For the same compound, the “α-LTX-induced increase … of substance” value (HC110-R [2]) was “complete inhibition”, the “HC110-R-specific binding in a Western blot” value (HC110-R [3]; denatured proteins, no renaturation) was “not identifiable” and the “band in HEK-293 cells expressing HC110-R-Myc/His” value (HC110-R [3]; renatured with urea, no band in untransfected cells) was “distinct band 116 kDa in size”. The “binding to 54 kDa N terminus of HC110-R” value (HC110-R [3]; renatured, fragment expressed in E. coli) was “bound to the 54 kDa N terminus of HC110-R”.
